Assays:
[1] = biological target: T1, Human M4 (Homo sapiens, UniProt P08173); assay: mAChR M4 cell-based functional calcium flux assay (human M4/Gqi5/CHO cells); conditions: for Emin (human M4): % ACh maximum at 30 μM; for IC50: decrease of the response to an EC80 concentration of acetylcholine
T1 construct: expressed in transfected cells; host or cells: CHO-K1 (ATCC), stably expressing M4 and Gqi5
T1 sequence (P08173 1-479): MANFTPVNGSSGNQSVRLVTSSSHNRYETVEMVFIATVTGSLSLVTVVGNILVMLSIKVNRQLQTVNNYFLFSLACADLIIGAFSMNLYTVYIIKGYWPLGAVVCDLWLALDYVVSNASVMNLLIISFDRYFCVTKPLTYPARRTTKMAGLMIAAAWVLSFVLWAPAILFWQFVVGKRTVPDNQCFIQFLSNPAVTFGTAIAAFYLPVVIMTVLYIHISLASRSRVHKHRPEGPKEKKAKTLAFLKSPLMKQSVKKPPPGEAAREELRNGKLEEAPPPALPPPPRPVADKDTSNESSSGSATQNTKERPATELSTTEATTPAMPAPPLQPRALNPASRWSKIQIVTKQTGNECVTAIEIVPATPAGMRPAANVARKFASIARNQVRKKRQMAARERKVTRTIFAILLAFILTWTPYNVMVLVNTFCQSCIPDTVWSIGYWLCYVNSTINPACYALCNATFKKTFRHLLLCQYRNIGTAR
Outline: (§1)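 CHO-K1 cells stably co-expressing M4 of the given species with chimeric Gqi5 were loaded with Fluo-4 AM and read for calcium flux. Compounds (10-point, 1:3 dilutions) were added first, followed by an acetylcholine EC20 at 143 s and an EC80 at 268 s. IC50 reflects the concentration-dependent fall in the EC80 response, fitted with a four-parameter logistic.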

[2] = biological target: T2, Rat M4 (Rattus norvegicus, UniProt P08485); assay: mAChR M4 cell-based functional calcium flux assay (rat M4/Gqi5/CHO cells); conditions: for Emin (rat M4): % ACh maximum at 30 μM
T2 construct: expressed in transfected cells; host or cells: CHO-K1 (ATCC), stably expressing M4 and Gqi5
T2 sequence (P08485 1-478): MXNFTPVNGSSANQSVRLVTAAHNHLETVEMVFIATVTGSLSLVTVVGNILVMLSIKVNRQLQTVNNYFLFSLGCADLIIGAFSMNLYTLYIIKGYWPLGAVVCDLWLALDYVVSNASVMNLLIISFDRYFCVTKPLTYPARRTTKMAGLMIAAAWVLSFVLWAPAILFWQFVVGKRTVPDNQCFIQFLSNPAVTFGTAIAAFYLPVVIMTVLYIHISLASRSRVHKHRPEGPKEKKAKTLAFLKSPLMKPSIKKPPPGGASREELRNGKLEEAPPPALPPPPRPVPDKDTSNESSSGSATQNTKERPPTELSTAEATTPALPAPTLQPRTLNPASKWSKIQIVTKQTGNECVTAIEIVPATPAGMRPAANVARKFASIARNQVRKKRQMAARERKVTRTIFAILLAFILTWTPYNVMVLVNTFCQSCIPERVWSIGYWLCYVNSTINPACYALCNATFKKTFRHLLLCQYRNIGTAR
Outline: as §1

[3] = decrease of the response to an EC80 concentration of acetylcholine

Compound: CC(C)(C)CCN1CCC2(CC1)CC2CNc1ccc(N2CCC(F)(F)CC2)nn1 (stereo not shown) [Compound 80, 6-(4,4-difluoro-1-piperidyl)-N-[[6-(3,3-dimethylbutyl)-6-azaspiro[2.5]octan-2-yl]methyl]pyridazin-3-amine]
- Emin (human M4) [1]: 3%
- IC50 [1]: 0.0398 µM
- Emin (rat M4) [2]: 3%
- IC50 [2, 3]: 0.0934 µM

Compound: Fc1ccc(Cl)c(-c2ccc(NCC3CC34CCN(CC3CCCCC3)CC4)nn2)c1 (stereo not shown) [Compound 14, 6-(2-chloro-5-fluoro-phenyl)-N-[[6-(cyclohexylmethyl)-6-azaspiro[2.5]octan-2-yl]methyl]pyridazin-3-amine]
- Emin (human M4) [1]: 1.95%
- IC50 [1]: 0.0177 µM
- Emin (rat M4) [2]: 2.42%
- IC50 [2, 3]: 0.228 µM

Compound: Cc1nn(C)cc1-c1ccc(NCC2CC23CCN(CC2CCCOC2)CC3)nn1 (stereo not shown) [Compound 60, 6-(1,3-dimethylpyrazol-4-yl)-N-[[6-(tetrahydropyran-3-ylmethyl)-6-azaspiro[2.5]octan-2-yl]methyl]pyridazin-3-amine]
- Emin (human M4) [1]: 3.93%
- IC50 [1]: 0.114 µM
- Emin (rat M4) [2]: 12.3%
- IC50 [2, 3]: 1.89 µM

Compound: Cn1nc(C(F)(F)F)cc1-c1ccc(NCC2CC23CCN(CCC(C)(C)C)CC3)nn1 (stereo not shown) [Compound 39, N-[[6-(3,3-dimethylbutyl)-6-azaspiro[2.5]octan-2-yl]methyl]-6-[2-methyl-5-(trifluoromethyl)pyrazol-3-yl]pyridazin-3-amine]
- Emin (human M4) [1]: 2.60%
- IC50 [1]: 0.0137 µM
- Emin (rat M4) [2]: 3.42%
- IC50 [2, 3]: 0.0581 µM

Compound: Fc1ccc(Cl)c(-c2ccc(NCC3CC34CCN(Cc3ncccc3C(F)(F)F)CC4)nn2)c1 (stereo not shown) [Compound 1, 6-(2-chloro-5-fluorophenyl)-N-((6-((3-(trifluoromethyl)pyridin-2-yl)methyl)-6-azaspiro[2.5]octan-1-yl)methyl)pyridazin-3-amine]
- Emin (human M4) [1]: 2.74%
- IC50 [1]: 0.0746 µM
- Emin (rat M4) [2]: 2.75%
- IC50 [2, 3]: 1.15 µM

Compound: Cc1nn(C)cc1-c1ccc(NCC2CC23CCN(CC2CC2)CC3)nn1 (stereo not shown) [Compound 55, N-[[6-(cyclopropylmethyl)-6-azaspiro[2.5]octan-2-yl]methyl]-6-(1,3-dimethylpyrazol-4-yl)pyridazin-3-amine]
- Emin (human M4) [1]: 16.7%
- IC50 [1]: 2.89 µM
- Emin (rat M4) [2]: 45.7%
- IC50 ([2]; cells printed in μM, decrease of the EC80 acetylcholine response): > 10 µM

Compound: CC(C)(C)CCN1CCC2(CC1)CC2CNc1ccc(-c2ccc3c(c2)OCO3)nn1 (stereo not shown) [Compound 46, 6-(1,3-benzodioxol-5-yl)-N-[[6-(3,3-dimethylbutyl)-6-azaspiro[2.5]octan-2-yl]methyl]pyridazin-3-amine]
- Emin (human M4) [1]: 3.06%
- IC50 [1]: 0.0122 µM
- Emin (rat M4) [2]: 3.11%
- IC50 [2, 3]: 0.117 µM

Compound: CC(C)(C)CCN1CCC2(CC1)CC2CNc1ccc(-c2cccc(F)c2)nn1 (stereo not shown) [Compound 27, N-[[6-(3,3-dimethylbutyl)-6-azaspiro[2.5]octan-2-yl]methyl]-6-(3-fluorophenyl)pyridazin-3-amine]
- Emin (human M4) [1]: 3.18%
- IC50 [1]: 0.0213 µM
- Emin (rat M4) [2]: 3.07%
- IC50 [2, 3]: 0.153 µM

Compound: CC(C)(C)CCN1CCC2(CC1)CC2CNc1ccc(-c2cc(F)cc(F)c2)nn1 (stereo not shown) [Compound 33, 6-(3,5-difluorophenyl)-N-[[6-(3,3-dimethylbutyl)-6-azaspiro[2.5]octan-2-yl]methyl]pyridazin-3-amine]
- Emin (human M4) [1]: 2.48%
- IC50 [1]: 0.04 µM
- Emin (rat M4) [2]: 2.09%
- IC50 [2, 3]: 0.11 µM

Compound: CC(C)(C)CCN1CCC2(CC1)CC2CNc1ccc(-c2cc(F)ccc2C#N)nn1 (stereo not shown) [Compound 43, 2-[6-[[[6-(3,3-dimethylbutyl)-6-azaspiro[2.5]octan-2-yl]methyl]amino]pyridazin-3-yl]-4-fluoro-benzonitrile]
- Emin (human M4) [1]: 2.34%
- IC50 [1]: 0.023 µM
- Emin (rat M4) [2]: 3.33%
- IC50 [2, 3]: 0.199 µM

Compound: Fc1ccc(Cl)c(-c2ccc(NC[C@@H]3CC34CCN(CC3CC5CCC3O5)CC4)nn2)c1 (stereo partly drawn) [Compound 110, N-(((1R)-6-((7-oxabicyclo[2.2.1]heptan-2-yl)methyl)-6-azaspiro[2.5]octan-1-yl)methyl)-6-(2-chloro-5-fluorophenyl)pyridazin-3-amine]
- Emin (human M4) [1]: 3%
- IC50 [1]: 0.00229 µM
- Emin (rat M4) [2]: 4%
- IC50 [2, 3]: 0.0392 µM

Compound: CC(=O)Nc1ccc(-c2ccc(NCC3CC34CCN(CCC(C)(C)C)CC4)nn2)cc1 (stereo not shown) [Compound 40, N-[4-[6-[[[6-(3,3-dimethylbutyl)-6-azaspiro[2.5]octan-2-yl]methyl]amino]pyridazin-3-yl]phenyl]acetamide]
- Emin (human M4) [1]: 2.97%
- IC50 [1]: 0.00456 µM
- Emin (rat M4) [2]: 3.40%
- IC50 [2, 3]: 0.0173 µM

Compound: CC(C)(C)CCN1CCC2(CC1)CC2CNc1ccc(-c2ccc(F)cc2F)nn1 (stereo not shown) [Compound 28, 6-(2,4-difluorophenyl)-N-[[6-(3,3-dimethylbutyl)-6-azaspiro[2.5]octan-2-yl]methyl]pyridazin-3-amine]
- Emin (human M4) [1]: 2.74%
- IC50 [1]: 0.0557 µM
- Emin (rat M4) [2]: 2.59%
- IC50 [2, 3]: 0.261 µM

Compound: CC(C)(C)CCN1CCC2(CC1)CC2CNc1ccc(-c2ccc(F)c(F)c2)nn1 (stereo not shown) [Compound 32, 6-(3,4-difluorophenyl)-N-[[6-(3,3-dimethylbutyl)-6-azaspiro[2.5]octan-2-yl]methyl]pyridazin-3-amine]
- Emin (human M4) [1]: 2.71%
- IC50 [1]: 0.0749 µM
- Emin (rat M4) [2]: 2.80%
- IC50 [2, 3]: 0.168 µM

Compound: Cc1nn(C)cc1-c1ccc(NCC2CC23CCN(CC2CCOCC2)CC3)nn1 (stereo not shown) [Compound 61, 6-(1,3-dimethylpyrazol-4-yl)-N-[[6-(tetrahydropyran-4-ylmethyl)-6-azaspiro[2.5]octan-2-yl]methyl]pyridazin-3-amine]
- Emin (human M4) [1]: 3.54%
- IC50 [1]: 0.0115 µM
- Emin (rat M4) [2]: 5.67%
- IC50 [2, 3]: 0.199 µM

Compound: Cc1nn(C)cc1-c1cnc(NCC2CC23CCN(CC2CC4C=CC2C4)CC3)cn1 (stereo not shown) [Compound 21, N-[[6-(5-bicyclo[2.2.1]hept-2-enylmethyl)-6-azaspiro[2.5]octan-2-yl]methyl]-5-(1,3-dimethylpyrazol-4-yl)pyrazin-2-amine]
- Emin (human M4) [1]: 3.65%
- IC50 [1]: 0.0301 µM
- Emin (rat M4) [2]: 4.56%
- IC50 [2, 3]: 0.191 µM

Compound: Fc1ccc(Cl)c(-c2ccc(NCC3CC34CCN(CC3CCCOC3)CC4)nn2)c1 (stereo not shown) [Compound 15, 6-(2-chloro-5-fluoro-phenyl)-N-[[6-(tetrahydropyran-3-ylmethyl)-6-azaspiro[2.5]octan-2-yl]methyl]pyridazin-3-amine]
- Emin (human M4) [1]: 3.08%
- IC50 [1]: 0.00651 µM
- Emin (rat M4) [2]: 4.24%
- IC50 [2, 3]: 0.519 µM

Compound: Fc1ccc(Cl)c(-c2ccc(NC[C@@H]3CC34CCN(CC35CC6CC(CC(C6)C3)C5)CC4)nn2)c1 [Compound 115, N-[[(2R)-6-(1-adamantylmethyl)-6-azaspiro[2.5]octan-2-yl]methyl]-6-(2-chloro-5-fluoro-phenyl)pyridazin-3-amine]
- Emin (human M4) [1]: 2%
- IC50 [1]: 0.0698 µM
- Emin (rat M4) [2]: 3%
- IC50 [2, 3]: 0.152 µM

Compound: Cc1ccc(F)cc1-c1ccc(NCC2CC23CCN(CCC(C)(C)C)CC3)nn1 (stereo not shown) [Compound 29, N-[[6-(3,3-dimethylbutyl)-6-azaspiro[2.5]octan-2-yl]methyl]-6-(5-fluoro-2-methyl-phenyl)pyridazin-3-amine]
- Emin (human M4) [1]: 2.78%
- IC50 [1]: 0.0172 µM
- Emin (rat M4) [2]: 3.14%
- IC50 [2, 3]: 0.0398 µM

Compound: Cc1nn(C)cc1-c1ccc(NCC2CC23CCN(CCC(C)(C)C)CC3)nn1 (stereo not shown) [Compound 50, N-[[6-(3,3-dimethylbutyl)-6-azaspiro[2.5]octan-2-yl]methyl]-6-(1,3-dimethylpyrazol-4-yl)pyridazin-3-amine]
- Emin (human M4) [1]: 2.71%
- IC50 [1]: 0.0024 µM
- Emin (rat M4) [2]: 3.70%
- IC50 [2, 3]: 0.0158 µM

Compound: Cc1nn(C)cc1-c1ccc(NCC2CC23CCN(CCC(C)(C)C)CC3)nc1 (stereo not shown) [Compound 6, N-[[6-(3,3-dimethylbutyl)-6-azaspiro[2.5]octan-2-yl]methyl]-5-(1,3-dimethylpyrazol-4-yl)pyridin-2-amine]
- Emin (human M4) [1]: 3.87%
- IC50 [1]: 0.103 µM
- Emin (rat M4) [2]: 3.97%
- IC50 [2, 3]: 0.313 µM

Compound: CC(C)(C)CCN1CCC2(CC1)CC2CNc1ccc(-c2ccc(F)cc2)nn1 (stereo not shown) [Compound 2, N-((6-(3,3-Dimethylbutyl)-6-azaspiro[2.5]octan-1-yl)methyl)-6-(4-fluorophenyl)pyridazin-3-amine]
- Emin (human M4) [1]: 2.54%
- IC50 [1]: 0.0424 µM
- Emin (rat M4) [2]: 3.35%
- IC50 [2, 3]: 0.159 µM

Source: patent US12600726B2, “Antagonists of the muscarinic acetylcholine receptor M4” (Vanderbilt University, priority 2017, dated 2026)
